# Patent US20120022045A1, “BRIDGED COMPOUNDS AS HIV INTEGRASE INHIBITORS” (priority 2009, published 2012)
# Like-named read-outs stand apart in the source and are kept apart here.
# Legend:
# HIV-1 integrase = target: T1, HIV-1 integrase (Human immunodeficiency virus type 1 group M subtype B, UniProt P04585); assay: HIV integrase assay: strand transfer catalyzed by recombinant integrase; assay type: biochemical; conditions: strand transfer activity
# T1 construct: strand transfer activity of HIV-1 integrase
# Experimental: Assays for the strand transfer activity of HIV-1 integrase were conducted in accordance with WO 02/30930 for recombinant integrase.
# Further description on conducting the assay using preassembled complexes is found in Wolfe, A. L. et al., J. Virol. 1996, 70: 1424-1432, Hazuda et al., J. Virol. 1997, 71: 7005-7011; Hazuda et al., Drug Design and Discovery 1997, 15: 17-24; and Hazuda et al., Science 2000, 287: 646-650.
# HIV-1 wild type IIIB = assay: Single cycle infectivity assay in HeLa P4-2 cells, wild type virus; assay type: cell-based
# Experimental: (§1) An assay for measuring the inhibition of acute HIV-1 infection with HeLa P4-2 cells in a single cycle infectivity assay was conducted using methods described in Joyce et al., J. Biol. Chem. 2002, 277: 45811, Hazuda et al., Science 2000, 287: 646, and Kimpton et al, J. Virol. 1992, 66: 2232. Proviral plasmids encoding viruses containing specific mutations in the integrase gene (N155H, Q148R, Y143R, E92Q, or G140S/Q148H) were generated by site-directed mutagenesis, and viruses were produced by transfecting 293T cells with the appropriate proviral plasmids.
# [1] = system: HIV-1 integrase mutant virus Q148R; assay: Single cycle infectivity assay in HeLa P4-2 cells, integrase mutant Q148R virus; assay type: cell-based; conditions: fold shift in IC50 versus wild type IIIB
# Experimental: as §1
# HIV-1 = assay: Inhibition of acute HIV-1 infection of T-lymphoid cells (spread assay); assay type: cell-based; conditions: 10% FBS, read-out: IC95 (nM) in the presence of 10% FBS
# Experimental: Assays for the inhibition of acute HIV-1 infection of T-lymphoid cells were conducted in accordance with Vacca, J. P. et al., Proc. Natl. Acad. Sci. USA 1994, 91: 4096.
# [2] = system: HIV-1 integrase mutant virus N155H; assay: Single cycle infectivity assay in HeLa P4-2 cells, integrase mutant N155H virus; assay type: cell-based; conditions: fold shift in IC50 versus wild type IIIB
# Experimental: as §1
# [3] = system: HIV-1 integrase mutant virus Y143R; assay: Single cycle infectivity assay in HeLa P4-2 cells, integrase mutant Y143R virus; assay type: cell-based; conditions: fold shift in IC50 versus wild type IIIB
# Experimental: as §1
# [4] = system: HIV-1 integrase mutant virus G140S/Q148H; assay: Single cycle infectivity assay in HeLa P4-2 cells, integrase mutant G140S/Q148H virus; assay type: cell-based; conditions: fold shift in IC50 versus wild type IIIB
# Experimental: as §1
# [5] = Human immunodeficiency virus 1, IIIB, HeLaP4-2, wild type IIIB
# [6] = Human immunodeficiency virus 1, T-lymphoid
Compound,IC50 (HIV-1 integrase) [nM],IC50 (HIV-1 wild type IIIB; wild type IIIB) [nM],Q148R (shift) [1] [fold],IC95 (HIV-1) [nM],N155H (shift) [2] [fold],Y143R (shift) [3] [fold],G140S/Q148H (shift) [4] [fold],IC50 (HIV-1 wild type IIIB; [5]) [nM],IC95 (HIV-1; [6]) [nM]
"CN(C)C(=O)C(=O)N(C)C12CCC(Cn3c1nc(C(=O)NCc1ccc(F)cc1)c(O)c3=O)OC2 (single isomer, unassigned) [Example 10A, N-(4-{[(4-fluorobenzyl)amino]carbonyl}-5-hydroxy-6-oxo-10-oxa-3,7-diazatricyclo[7.2.2.0^2,7]trideca-2,4-dien-1-yl)-N′,N′N′-trimethylethanediamide]",5,221,4,9.0,5,1,26,–,–
"CN(C)C(=O)C(=O)N(C)C12CCC(Cn3c1nc(C(=O)NCc1ccc(F)cc1)c(O)c3=O)OC2 (single isomer, unassigned) [Example 10B, N-(4-{[(4-Fluorobenzyl)amino]carbonyl}-5-hydroxy-6-oxo-10-oxa-3,7-diazatricyclo[7.2.2.0^2,7]trideca-2,4-dien-1-yl)-N′,N′,N′-trimethylethanediamide]",14,30,22,15,18,6,12,–,–
"CC1C2CCC(NC(=O)C(=O)N(C)C)(CO2)c2nc(C(=O)NCc3ccc(F)cc3)c(O)c(=O)n21 (single isomer, unassigned) [Example 29C, N′-(4-{[(4-Fluorobenzyl)amino]carbonyl}-5-hydroxy-8-methyl-6-oxo-10-oxa-3,7-diazatricyclo[7.2.2.0^2,7]trideca-2,4-dien-1-yl)-N-dimethylethanediamide]",–,20,8,47.8,17,3,81,–,–
"CC1C2CCC(NC(=O)C(=O)N(C)C)(CO2)c2nc(C(=O)NCc3ccc(F)cc3)c(O)c(=O)n21 (single isomer, unassigned) [Example 29D, N′-(4-{[(4-Fluorobenzyl)amino]carbonyl}-5-hydroxy-8-methyl-6-oxo-10-oxa-3,7-diazatricyclo[7.2.2.0^2,7]trideca-2,4-dien-1-yl)-N-dimethylethanediamide]",–,21,1,21.6,2,1,2,–,–
"Cc1nnc(C(=O)N(C)C23CCC(Cn4c2nc(C(=O)NCc2ccc(F)cc2)c(O)c4=O)C3)o1 (centres unmarked) [Example 7, N-(4-Fluorobenzyl)-3-hydroxy-10-{methyl[(5-methyl-1,3,4-oxadiazol-2-yl)carbonyl]amino}-4-oxo-4,6,7,8,9,10-hexahydro-7,10-methanopyrimido[1,2-a]azepine-2-carboxamide]",–,–,4,–,3,2,44,80,9.6
CN(C)C(=O)C(=O)N(C)C12CCC(Cn3c1nc(C(=O)NCc1ccc(F)cc1)c(O)c3=O)C2 (centres unmarked) [Example 8],–,–,18,–,16,13,110,13,9.2
"CN(C(=O)C(=O)N1CCOCC1)C12CCC(Cn3c1nc(C(=O)NCc1ccc(F)cc1)c(O)c3=O)C2 (centres unmarked) [Example 9, N-(4-Fluorobenzyl)-3-hydroxy-10-{methyl[morpholin-4-yl(oxo)acetyl]amino}-4-oxo-4,6,7,8,9,10-hexahydro-7,10-methanopyrimido[1,2-a]azepine-2-carboxamide]",–,–,11,–,5,2,40,43,15
"COC12CCC(N(C)C(=O)C(=O)N(C)C)(CC1)c1nc(C(=O)NCc3ccc(F)c(C)c3)c(O)c(=O)n1C2 [Example 14, N-(4-{[(4-Fluoro-3-methylbenzyl)amino]carbonyl}-5-hydroxy-9-methoxy-6-oxo-3,7-diazatricyclo[7.2.2.0^2,7]trideca-2,4-dien-1-yl)-N,N′,N′-trimethylethanediamide]",–,–,1,–,2,2,4,12,13.1
"COC12CCC(N(C)C(=O)C(=O)N(C)C)(CC1)c1nc(C(=O)NCc3ccc(F)cc3)c(O)c(=O)n1C2 [Example 15, N-(4-{[(4-Fluorobenzyl)amino]carbonyl}-5-hydroxy-9-methoxy-6-oxo-3,7-diazatricyclo[7.2.2.0^2,7]trideca-2,4-dien-1-yl)-N,N′,N′-trimethylethanediamide]",–,–,1,–,2,1,9,23,9.5
"CCN(C(=O)C(=O)N(C)C)C12CCC(OC)(CC1)Cn1c2nc(C(=O)NCc2ccc(F)cc2)c(O)c1=O [Example 16, N-Ethyl-N-(4-{[(4-fluorobenzyl)amino]carbonyl}-5-hydroxy-9-methoxy-6-oxo-3,7-diazatricyclo[7.2.2.0^2,7]trideca-2,4-dien-1-yl)-N,N′-dimethylethanediamide]",–,–,1,–,3,1,15,15,11.3
"CN(C)C(=O)C(=O)N(C)C12CCC(O)(CC1)Cn1c2nc(C(=O)NCc2ccc(F)cc2)c(O)c1=O [Example 17, N-(4-{[(4-Fluorobenzyl)amino]carbonyl}-5,9-dihydroxy-6-oxo-3,7-diazatricyclo[7.2.2.0^2,7]trideca-2,4-dien-1-yl)-N,N′,N′-trimethylethanediamide]",–,–,3,–,3,1,38,46,20.5
"CCN(C(=O)C(=O)N(C)C)C12CCC(Cn3c1nc(C(=O)NCc1ccc(F)c(C)c1)c(O)c3=O)OC2 (centres unmarked) [Example 18A, N-ethyl-N-(4-{[(4-fluoro-3-methylbenzyl)amino]carbonyl}-5-hydroxy-6-oxo-10-oxa-3,7-diazatricyclo[7.2.2.0^2,7]trideca-2,4-dien-1-yl)-N,N-dimethylethanediamide]",–,–,7,–,8,2,>88,19,9.8
"CCCN(C(=O)C(=O)N(C)C)C12CCC(Cn3c1nc(C(=O)NCc1ccc(F)cc1)c(O)c3=O)OC2 (centres unmarked) [Example 19, N-(4-{[(4-fluorolbenzyl)amino]carbonyl}-5-hydroxy-6-oxo-10-oxa-3,7-diazatricyclo[7.2.2.0^2,7]trideca-2,4-dien-1-yl)-N′,N′-dimethyl-N-propylethanediamide]",–,–,59,–,45,7,>209,8,15.9
CN(C)C(=O)C(=O)N(C)C12CCC(CC1)n1c2nc(C(=O)NCc2ccc(F)cc2)c(O)c1=O [Example 30],–,–,9,–,7,3,32,17,22.4
